melting point [°C] | SMILES
198 to 199 | Brc1ccc(-c2ccc(-c3ccc(Br)cc3)o2)cc1
149 | CS(=O)(=O)Nc1cccc(CC2c3ccccc3CCc3ccccc32)c1
199 to 200 | CC(C)C(C)(C(N)=O)N1C(=O)c2ccc3ccsc3c2C1=O (configuration not stated)
85 to 87 | O=C(O)C(CCc1ccccc1)Oc1c(Br)cc(-c2ccc(-c3c(Cc4ccccc4)sc4ccccc34)cc2)cc1Br (configuration not stated)
133 to 134 | Cc1nccnc1C(=O)Nc1ccc(C(C(F)(F)F)C(F)(F)F)c(CC(C)C)c1
198 | O=c1[nH]nc2n1-c1ccccc1OC2
40 to 41 | CCOC(=O)CCC(=O)c1ccc(OCCCCCBr)c(CCC(=O)OCC)c1
126 | O=C(c1sccc1-n1cccc1)N1CCCCC1
100 | O=C(O)Cc1ccc(OCCNC(=O)C2Cc3ccccc3N2S(=O)(=O)c2ccc(-c3cc(C(F)(F)F)ccc3Cl)cc2)c(F)c1 (configuration not stated)
99 to 101 | CC(C)(C)OC(=O)N1CC(NC(=O)CNC(=NC(=O)OCc2ccc([N+](=O)[O-])cc2)NC(=O)OCc2ccc([N+](=O)[O-])cc2)C1
140 to 144 | O=C(CC1(c2ccccc2)CCCC1)C(=O)Nc1ccc2c(c1)COC2=O
97 to 99 | CN(C)C=C(C(=O)OC(C)(C)C)C(=O)c1ccccc1Cl
165 to 167 | C1=CNc2ccccc2C=N1
223 to 225 | CCCCC(=O)Nc1ccc(Br)c(-n2nc(CC)n(Cc3ccc(-c4ccccc4S(N)(=O)=O)cc3F)c2=O)c1
82 to 84 | CC(=O)C(=Cc1ccccc1[N+](=O)[O-])C(=O)OCCCl
122 to 123 | C#CC1(O)CCN(CC=C(c2ccccc2)c2ccccc2)CC1
115 to 117 | CC(C(=O)Oc1cc(=O)n(-c2cccc(OC(F)(F)F)c2)c2ncccc12)c1ccccc1 (configuration not stated)
174 to 176 | CS(=O)(=O)c1ccc(-c2ccc(Br)n2-c2ccc(F)cc2)cc1
62 to 65 | CCCCCCCCCCCCCCCCCCC(N=C(c1ccccc1)c1ccccc1)C(=O)OCC (configuration not stated)
215 | Cc1cc(O)n2nc(CS)nc2n1
225 to 226 | NC(=O)NN=Cc1ccc(Oc2ccc3c(c2)OCO3)cc1
206 to 209 | O=C(O)C(Cc1ccccc1)Oc1ccc2cc(-c3oc4ccccc4c3Br)ccc2c1Br (configuration not stated)
91 to 92 | CCCCCCCCCCC(=O)N[C@H]1CCCNC(=O)C1
92.5 to 95 | C=CCc1cc(C2=NNC(=O)CC2)ccc1OCC1CO1 (configuration not stated)
90 | O=S(CCl)c1ncc(Cl)cn1 (configuration not stated)

melting point [°C] | SMILES
66.3 to 68.3 | COCCCCCCCCCCCc1nnn[nH]1
288 | NS(=O)(=O)c1ccc(-c2noc(-c3cnc4ccc(-c5ccc(C(F)(F)F)cc5)cn34)n2)cc1
136 | CS(=O)(=O)n1ccc(-c2ccc(Oc3ccccc3)cc2)n1
192 to 193 | C=CCOc1cc(C(=O)O)cc([N+](=O)[O-])c1C(=O)c1ccccc1
30 to 32 | CC(C)c1ccc(N(C=O)C(=O)N(C)C)cc1
165 | COc1ccc(C=N[C@H]2C(O)O[C@H](CO)[C@@H](O)[C@@H]2O)cc1 (some centres not stated)
68 to 69 | CSCCN(C)C(=O)N(C)c1cnc(-c2cncc(F)c2)s1
84 to 85 | CC(C)(C)OC(=O)NCCC(=O)NCCC(=O)OCc1ccccc1
207 to 208 | CCCNc1sc(C(N)=O)c2c1-c1c(cnn1C)CC2
149 to 150 | CS(=O)c1ccc(C2=C(c3ccccc3)C(=O)C(C)(C)O2)c(F)c1 (configuration not stated)
180 to 183 | CS(=O)(=O)Nc1ccc(OCC2CCNCC2)cc1
168 to 169 | COC(=O)c1cccc(-c2nc(COc3ccc(C=O)cc3OC)c(C)o2)c1
96 to 98 | COC=C(C(=O)OC)N(C)c1nc(-c2ccc(Cl)c(Cl)c2)cs1
43 to 46 | CCCCCCCCCCCCCCOc1ccc(OCc2ccccc2)c(C(=O)OC)c1
48 to 49 | CCOC(=O)C=CC(C)=CC=O
185 to 187 | CCOC(=O)N1CCN(CC2CSC3=C(O2)c2ccccc2C(=O)C3=O)CC1 (configuration not stated)
114 to 116 | CC(=O)c1cn(C(=O)OC(C)(C)C)c2ccc(OCc3ccccc3)cc12
141 to 142 | COc1ccc(-c2cc3ccc(C#N)cc3o2)cc1
63 to 64 | CC(C)(C)[Si](C)(C)OCCn1nc(C=O)cc1C=O
122 to 125 | CN1Cc2c(Cl)cccc2SCC1=O
236 | COc1ccc(N2CCOCC2)c2sc(NC(=O)N3CCC(C)(O)CC3)nc12
80 to 81 | FC(F)(F)c1cc(CBr)c(C(F)(F)F)cc1CBr
208 to 209 | Cc1cc(Oc2ccc(NC(=O)N3CCc4ccccc4CC3)cn2)cc(C)c1Cl
139 to 140 | CC1(C)C=C(c2ccccc2O)c2cc(C#N)ccc2O1
106 to 107 | CC(C)c1nc(CCCOc2ncccc2CC(=O)O)c(Cc2ccc(Cl)cc2Cl)s1

melting point [°C] | SMILES
197 to 199 | CCCc1nnc2c3cccc(Br)c3ccn12
85 to 87 | CCCCOC(=O)C(N)c1ccc(OCC(O)CNC(C)C)nc1 (configuration not stated)
144 to 145 | Cc1nc(C)c(Cl)c(NCc2nccc(SCCCN3CCNCC3)c2C)n1
275 to 281 | CNc1c([N+](=O)[O-])cc2c(=O)c(C(=O)O)cn(-c3cc(N)c(F)cc3F)c2c1C
243 | CCC1CCc2c(sc3cc(NC(C)=O)ccc3c2=O)C1 (configuration not stated)
232 to 233 | Cc1cc(-c2nc3cccnn3c2-c2ccnc(NC(=O)NC(C)C)c2)ccc1F
126 to 127 | COc1ccc(C2CC(O)CCC2[N+](=O)[O-])cc1OC (configuration not stated)
220 to 221 | Nc1nc(N)c(-c2ccc(Cl)cc2Cl)c(C(F)(F)F)n1
249 to 251 | c1ccc2[nH]c3c4ccccc4nc-3cc2c1
176 to 178 | CCc1c(-c2ccc(O)cc2)c2cc(COCCCN3CCCCC3)c3cccc1n32
179 to 180 | NC(=O)N1C(=O)Cc2ccccc21
188 to 191 | CSc1nc(N)nc2c1ncn2COCCO
214 to 215 | COC(=O)c1cc(C(=O)OC)cc(-c2cc(C(=O)OC)cc(C(=O)OC)c2)c1
129 | O=S(=O)(c1ccc(Cl)cc1)C(Cc1ccncc1)c1cc(F)ccc1F (configuration not stated)
248 to 250 | N#Cc1c(-c2ccc(F)cc2)cc2c3c1ccn3C(=O)CNC2
114 to 118 | COC(=O)CC(=O)COc1cc(O)c2c(c1)OC(c1ccc(OC)c(O)c1)CC2=O (configuration not stated)
101 to 102 | OC1CCc2ccc(Oc3c(F)cc(C(F)(F)F)cc3Cl)cc21 (racemic)
102 to 110 | CC1(C(O)C(N)=O)CC=CCC1 (configuration not stated)
79 to 83 | O=C(CC1CCCCCC1)Nc1cn(CCO)c2cccc(Cl)c12
90 | O=C(NO)c1ccc2c(c1)CCN(C(=O)C1CC1)C2
220 to 224 | CCCc1ccc(NC(=O)c2cccnc2NCc2ccc(=O)[nH]c2)cc1C(F)(F)F
145 to 146 | O=C(NCCC(O)(c1ccccc1)c1ccccc1)c1ccccc1
117 to 118 | N#Cc1ccc(-c2cccc3cncn23)cc1
185 to 186 | O=C1c2ccc(-n3ncc4ccccc43)cc2CCN1CCN1CCCC1
99 to 100 | COCOc1ccccc1-c1cc(-c2cccc(CN=[N+]=[N-])c2)c(C#N)c(N)n1

melting point [°C] | SMILES
88 to 90 | CN1CCN(C2=Nc3ccccc3N(C)c3sc4ccccc4c32)CC1
87 to 89 | CCOP(=O)(OCC)C(F)(F)c1ccc(CN(Cc2ccc(C(F)(F)P(=O)(OCC)OCC)cc2)C(=O)c2ccccc2)cc1
240 to 242 | O=C(Nc1ccc(C(CC2CCCC2)C(=O)Nc2nccs2)cc1)c1cccnc1 (configuration not stated)
186 to 188 | Nc1nnc(N2CCOCC2)s1
186 to 188 | O=C(O)Cc1ccc2c(c1)Cc1ccccc1C(=O)C2
174 to 178 | CC(C(=O)O)c1ccc(-c2nc3ccccc3o2)cc1 (configuration not stated)
155 to 156 | CCCCC(=O)Nc1ncc([N+](=O)[O-])s1
280 | Cn1c2ccc(Cl)cc2c(=O)n2nc(C(=O)O)cc12
168 to 169 | O=[N+]([O-])c1ccc(Cl)c(N=Cc2ccccc2O)c1
105 to 106 | CCN(CC)C(=O)C1=C(C(=O)Nc2ccc(Cl)cc2F)CCCC1
280 to 284 | NN=Cc1ccc(C(=O)NC2CCC3(CC2)CN(CC(=O)O)C(=O)O3)cc1 (configuration not stated)
228 to 229 | O=c1c2c(CBr)c(-c3ccc([N+](=O)[O-])cc3)sc2n(Cc2c(F)cccc2F)c(=O)n1-c1ccccc1
134 to 135 | CN(C)C(=O)CCN1CCC(C(O)(c2ccc(F)cc2)c2ccc(F)cc2)CC1
82 to 84 | O=C(Oc1ccc(OC(=O)c2ccccc2)c(-c2ccccc2)c1)c1cc(O)c(O)c(O)c1
52 to 54 | COCOc1ccc2cc(C=O)ccc2c1
79 to 80.5 | N#CCC1CC(c2ccccc2)=NO1 (configuration not stated)
195 to 198 | O=C(O)c1cn(-c2ccc(F)cc2)c2c(F)c(N3CC4=C(CNC4)C3)c(F)cc2c1=O
175 to 180 | Cc1cc(Cl)cc(C(=O)c2ccc(S(C)(=O)=O)cc2Cl)c1O
202 to 205 | CCCC1=C(C(=O)OCC)C(c2ccccc2Cl)c2c[nH]nc2N1 (configuration not stated)
126 to 128 | O=C(Cn1ccnc1)c1ccc(Cl)c(Cl)c1
130 to 132 | Clc1ccc(C=Cc2ccc(CBr)cc2)cc1
136 | CN(C)n1c(Br)nn(C(=O)Oc2ccccc2)c1=O
72.5 to 73 | COC(=O)NNC(=S)CC(C)(C)C

SMILES | melting point [°C]
CC1(C)CCC(C)(C)c2cc(-c3cc([N+](=O)[O-])ccc3-c3ccccc3)ccc21 | 181 to 183
Cc1ncc([N+](=O)[O-])n1CCN(CCCC(C)N(CCn1c([N+](=O)[O-])cnc1C)CCn1c([N+](=O)[O-])cnc1C)CCn1c([N+](=O)[O-])cnc1C (configuration not stated) | 150 to 151
CC1(C)OC(=C(C#N)C#N)C(C#N)=C1C=Cc1c(F)c(F)c(N2C3C4CCC(C4)C32)c(F)c1F (configuration not stated) | 233
O=C(O)CC(NC(=O)C(Cl)Cl)C(=O)O (configuration not stated) | 165 to 168

— a melting point compilation (Tetko et al.; mined from patent text by program, amines drawn as free bases though some values may be those of a salt)
